# From ChEMBL document CHEMBL6127100, “Plant based steroidal and triterpenoid sapogenins: Chemistry on diosgenin and biological aspects” (Eur J Med Chem, 2024)
# Assays:
# HeLa [1] = experiment: Antiproliferative activity against human HeLa cells assessed as reduction in cell growth after 48 hrs by MTT assay; format: functional, cell-based
# Ca-Ski [2] = experiment: Antiproliferative activity against human Ca-Ski cells assessed as reduction in cell growth after 48 hrs by MTT assay; format: functional, cell-based
# HepG2 [3] = experiment: Antiproliferative activity against human HepG2 cells assessed as reduction in cell viability incubated for 24 hrs ny MTT assay; format: functional, cell-based; details: HepG2, 24 h
# CCRF-CEM = experiment: Cytotoxicity against human CCRF-CEM cells; format: functional, cell-based
# U-937 [4] = experiment: Cytotoxicity against human U-937 cells; format: functional, cell-based
# MDA-MB-231 [5] = experiment: Cytotoxicity against human MDA-MB-231 cells; format: functional, cell-based
# T98G = experiment: Antiproliferative activity against human T98G cells assessed as inhibition of cell growth incubated for 72 hrs by celltiter-glo assay; format: functional, cell-based
# BT-474 = experiment: Cytotoxicity against human BT-474 cells; format: functional, cell-based
# DU-145 = experiment: Cytotoxicity against human DU-145 cells; format: functional, cell-based
# RAW264.7 [6] = experiment: Antiinflammatory activity in LPS-induced mouse RAW264.7 cells assessed as inhibition of IL-6 production pretreated for 1 hr followed by LPS stimulation and measured after 3 hrs by ELISA; format: functional; design: scale not given: the % may be the effect or the level left; details: time 4 hrs
# RAW264.7 [7] = experiment: Anti-inflammatory activity in mouse RAW264.7 cells assessed as inhibition of LPS-induced TNFalpha production preincubated for 1 hr followed by LPS addition and measured after 24 hrs by ELISA; format: functional; design: scale not given: the % may be the effect or the level left; details: time 25 hrs
# HeLa [8] = experiment: Cytotoxicity against human HeLa cells; format: functional, cell-based
# Ca-Ski [9] = experiment: Cytotoxicity against human Ca-Ski cells; format: functional, cell-based
# HeLa [10] = experiment: Antiproliferative activity against human HeLa cells assessed as reduction in cell viability incubated for 24 hrs by MTT assay; format: functional, cell-based
# HuCC-A1 = experiment: Cytotoxicity against human HuCC-A1 cells assessed as reduction in cell growth incubated for 3 days by micro-titer plate reader analysis; format: functional, cell-based; details: HuCC-A1, 72 h
# KB = experiment: Cytotoxicity against human KB cells assessed as reduction in cell growth incubated for 3 days by micro-titer plate reader analysis; format: functional, cell-based; details: 72 h
# HeLa [11] = experiment: Cytotoxicity against human HeLa cells assessed as reduction in cell growth incubated for 48 hrs by MTT assay; format: functional, cell-based
# MDA-MB-231 [12] = experiment: Cytotoxicity against human MDA-MB-231 cells assessed as reduction in cell growth incubated for 48 hrs by MTT assay; format: functional, cell-based; details: MDA-MB-231, 48 h
# HepG2 [13] = experiment: Cytotoxicity against human HepG2 cells assessed as reduction in cell viability incubated for 24 hrs by MTT assay; format: functional, cell-based; details: HepG2, 24 h
# U-937 [14] = experiment: Antiproliferative activity against human U-937 cells assessed as inhibition of cell growth incubated for 72 hrs by cell-titer glo assay; format: functional, cell-based; details: U-937, 72 h
# HeLa [15] = experiment: Antiproliferative activity against human HeLa cells assessed as reduction in cell growth; format: functional, cell-based
# HepG2 [16] = experiment: Antiproliferative activity against human HepG2 cells assessed as reduction in cell growth; format: functional, cell-based
# HepG2 [17] = experiment: Antiproliferative activity against human HepG2 cells assessed as reduction in cell viability incubated for 48 hrs by MTT assay; format: functional, cell-based; details: HepG2, 48 h
smiles,measurement,setting,value
C[C@@H]1CC[C@@]2(OC1)O[C@H]1C[C@H]3[C@@H]4CC=C5C[C@@H](O)CC[C@]5(C)[C@H]4CC[C@]3(C)[C@H]1[C@@H]2C [DISOGENIN],IC50,HeLa [1],31.4 µM
same,IC50,Ca-Ski [2],80 µM
C[C@H](CC[C@H]1O[C@H]2C[C@H]3[C@@H]4CC=C5C[C@@H](O[Si](C)(C)C(C)(C)C)CC[C@]5(C)[C@H]4CC[C@]3(C)[C@H]2[C@@H]1C)COC1=C(Cl)C(=O)c2ncccc2C1=O,IC50,HepG2 [3],19.7 µM
C[C@@H]1CC[C@@]2(OC1)O[C@H]1C[C@H]3[C@@H]4CC(n5cc(-c6ccc(F)cc6)nn5)C5(O)C[C@@H](O)CC[C@]5(C)[C@H]4CC[C@]3(C)[C@H]1[C@@H]2C (some centres undefined),IC50,CCRF-CEM,5.44 µM
same,IC50,U-937 [4],7.07 µM
same,IC50,MDA-MB-231 [5],7.08 µM
same,IC50,T98G,8.87 µM
same,IC50,BT-474,3.85 µM
same,IC50,DU-145,10.1 µM
C[C@@H]1CC[C@@]2(OC1)O[C@H]1C[C@H]3[C@@H]4CC=C5C[C@@H](O[C@@H]6O[C@H](CO)[C@@H](O)[C@H](O)[C@H]6O)CC[C@]5(C)[C@H]4CC[C@]3(C)[C@H]1[C@@H]2C [DISOGLUSIDE],IC50,HeLa [1],39.1 µM
same,IC50,Ca-Ski [2],41 µM
C[C@@H]1CC[C@@]2(OC1)O[C@H]1C[C@H]3[C@@H]4CC(n5cc(-c6ccccn6)nn5)C5(O)C[C@@H](O)CC[C@]5(C)[C@H]4CC[C@]3(C)[C@H]1[C@@H]2C (some centres undefined),IC50,U-937 [4],15.2 µM
C[C@H]1CO[C@@]2(O[C@H]3C[C@H]4[C@@H]5/C(=N/CCCCC(=O)O)C=C6C[C@@H](O)CC[C@]6(C)[C@H]5CC[C@]4(C)[C@H]3[C@@H]2C)/C(=N/O)C1,Activity,RAW264.7 [6],23.3%
same,Activity,RAW264.7 [7],47.7%
CC(=O)O[C@@H]1C=C2CC[C@H]3[C@@H]4C[C@@H]5O[C@@]6(OC[C@H](C)CC6/C(C)=N\O)[C@@H](C)[C@@H]5[C@@]4(C)CC[C@@H]3[C@@]2(C)CC1 (some centres undefined),IC50,HeLa [8],5.6 µM
same,IC50,Ca-Ski [9],5.4 µM
C[C@@H]1CC[C@@]2(OC1)O[C@H]1C[C@H]3[C@@H]4C/C(=N\O)C5=C/C(=N/O)CC[C@]5(C)[C@H]4CC[C@]3(C)[C@H]1[C@@H]2C,IC50,HeLa [8],19 µM
same,IC50,Ca-Ski [9],22 µM
CC(=O)O[C@H]1CC[C@@]2(C)C(=CC[C@H]3[C@@H]4C[C@@H]5O[C@H](CC[C@@H](C)COC6=C(Cl)C(=O)c7ccccc7C6=O)[C@@H](C)[C@@H]5[C@@]4(C)CC[C@@H]32)C1,IC50,HepG2 [3],13.5 µM
C[C@H](CC[C@H]1O[C@H]2C[C@H]3[C@@H]4CC=C5C[C@@H](O)CC[C@]5(C)[C@H]4CC[C@]3(C)[C@H]2[C@@H]1C)COC1=C(Cl)C(=O)c2ccccc2C1=O,IC50,HepG2 [3],1.24 µM
same,IC50,HeLa [10],14.1 µM
COc1cccc(COc2ccc(-c3cn(C4C[C@H]5[C@@H]6C[C@@H]7O[C@]8(CC[C@@H](C)CO8)[C@@H](C)[C@@H]7[C@@]6(C)CC[C@@H]5[C@@]5(C)CC[C@H](O)CC45O)nn3)cc2)c1 (some centres undefined),IC50,CCRF-CEM,5.73 µM
same,IC50,T98G,7.51 µM
same,IC50,DU-145,10.5 µM
COc1cc(-c2cn(C3C[C@H]4[C@@H]5C[C@@H]6O[C@]7(CC[C@@H](C)CO7)[C@@H](C)[C@@H]6[C@@]5(C)CC[C@@H]4[C@@]4(C)CC[C@H](O)CC34O)nn2)cc(OC)c1OC (some centres undefined),IC50,CCRF-CEM,6.26 µM
same,IC50,U-937 [4],5.45 µM
same,IC50,MDA-MB-231 [5],16.1 µM
C[C@@H]1CC[C@@]2(OC1)O[C@H]1C[C@H]3[C@@H]4CC=C5C[C@@H](O[C@@H]6O[C@H](CO)[C@@H](O[C@@H]7O[C@@H](C)[C@H](O[C@@H]8O[C@@H](C)[C@H](O)[C@@H](O)[C@H]8O)[C@@H](O)[C@H]7O)[C@H](O)[C@H]6O[C@@H]6O[C@@H](C)[C@H](O)[C@@H](O)[C@H]6O)CC[C@]5(C)[C@H]4CC[C@]3(C)[C@H]1[C@@H]2C [PENNOGENIN RAHAMNOSYL CHACOTRIOSIDE],IC50,HuCC-A1,3 µM
same,IC50,KB,6.2 µM
same,IC50,HeLa [11],3 µM
same,IC50,MDA-MB-231 [12],3.1 µM
same,IC50,HepG2 [13],6.33 µM
C[C@@H]1CC[C@@]2(OC1)O[C@H]1C[C@H]3[C@@H]4CC=C5C[C@@H](O[C@@H]6O[C@H](CO)[C@@H](O[C@@H]7O[C@@H](C)[C@H](O)[C@@H](O)[C@H]7O)[C@H](O)[C@H]6O)CC[C@]5(C)[C@H]4CC[C@]3(C)[C@H]1[C@@H]2C,IC50,HeLa [1],45.1 µM
same,IC50,Ca-Ski [2],80 µM
C[C@@H]1CC[C@@]2(OC1)O[C@H]1C[C@H]3[C@@H]4CC=C5C[C@@H](O[C@@H]6O[C@H](CO)[C@@H](O[C@@H]7O[C@@H](C)[C@H](O)[C@@H](O)[C@H]7O)[C@H](O)[C@H]6O[C@@H]6O[C@@H](C)[C@H](O)[C@@H](O)[C@H]6O)CC[C@]5(C)[C@H]4CC[C@]3(C)[C@H]1[C@@H]2C [DIOSCIN],IC50,HeLa [1],2 µM
same,IC50,Ca-Ski [2],2 µM
same,IC50,HuCC-A1,8.4 µM
same,IC50,KB,6.2 µM
same,IC50,HeLa [11],3.6 µM
same,IC50,MDA-MB-231 [12],1.7 µM
same,IC50,HepG2 [13],3.09 µM
Cc1ccc2c(c1)C(=O)C(Cl)=C(OC[C@H](C)CC[C@H]1O[C@H]3C[C@H]4[C@@H]5CC=C6C[C@@H](O[Si](C)(C)C(C)(C)C)CC[C@]6(C)[C@H]5CC[C@]4(C)[C@H]3[C@@H]1C)C2=O,IC50,HepG2 [3],10.9 µM
same,IC50,HeLa [10],17.9 µM
COc1ccc(-c2cn(C3C[C@H]4[C@@H]5C[C@@H]6O[C@]7(CC[C@@H](C)CO7)[C@@H](C)[C@@H]6[C@@]5(C)CC[C@@H]4[C@@]4(C)CC[C@H](O)CC34O)nn2)cc1 (some centres undefined),IC50,MDA-MB-231 [5],5.78 µM
same,IC50,U-937 [14],5.41 µM
same,IC50,T98G,11.4 µM
same,IC50,BT-474,4.3 µM
same,IC50,DU-145,19.8 µM
Cc1ccc2c(n1)C(=O)C(Cl)C(O[C@H]1CC[C@@]3(C)C(=CC[C@H]4[C@@H]5C[C@@H]6O[C@]7(CC[C@@H](C)CO7)[C@@H](C)[C@@H]6[C@@]5(C)CC[C@@H]43)C1)C2=O (some centres undefined),IC50,HeLa [15],16 µM
C[C@@H]1CC[C@@]2(OC1)O[C@H]1C[C@H]3[C@@H]4CC=C5C[C@@H](OC6=C(Cl)C(=O)c7ccccc7C6=O)CC[C@]5(C)[C@H]4CC[C@]3(C)[C@H]1[C@@H]2C,IC50,HepG2 [16],17.5 µM
C[C@@H]1CC[C@@]2(OC1)O[C@H]1C[C@H]3[C@@H]4CC=C5C[C@@H](OC(=O)[C@@H](N)CCCNC(=N)N)CC[C@]5(C)[C@H]4CC[C@]3(C)[C@H]1[C@@H]2C,IC50,HepG2 [17],19 µM
C[C@@H]1CC[C@@]2(OC1)O[C@H]1C[C@H]3[C@@H]4CC=C5C[C@@H](O[C@@H]6O[C@H](CO)[C@@H](O)[C@H](O)[C@H]6O[C@@H]6O[C@@H](C)[C@H](O)[C@@H](O)[C@H]6O)CC[C@]5(C)[C@H]4CC[C@]3(C)[C@H]1[C@@H]2C [OPHIOPOGONIN C],IC50,HuCC-A1,5.8 µM
same,IC50,KB,4.2 µM
same,IC50,HeLa [11],3.7 µM
same,IC50,MDA-MB-231 [12],3.5 µM
same,IC50,HepG2 [13],2.92 µM
C[C@@H]1CC[C@@]2(OC1)O[C@H]1C[C@H]3[C@@H]4CC(n5cc(-c6ccccc6)nn5)C5(O)C[C@@H](O)CC[C@]5(C)[C@H]4CC[C@]3(C)[C@H]1[C@@H]2C (some centres undefined),IC50,CCRF-CEM,3.9 µM
same,IC50,U-937 [4],7.9 µM
same,IC50,MDA-MB-231 [5],3.32 µM
same,IC50,U-937 [14],8.22 µM
same,IC50,BT-474,13.2 µM
same,IC50,DU-145,7.9 µM
C[C@H](CC[C@H]1O[C@H]2C[C@H]3[C@@H]4CC=C5C[C@@H](O[Si](C)(C)C(C)(C)C)CC[C@]5(C)[C@H]4CC[C@]3(C)[C@H]2[C@@H]1C)COC1=C(Cl)C(=O)c2ccccc2C1=O,IC50,HepG2 [3],5.81 µM
same,IC50,HeLa [10],17.4 µM
